In US20100267561A1, “HERBICIDAL PYRIDAZINONE DERIVATIVES” (priority 2007, published 2010):

Legend:
[1] = test system: field bindweed (Convolvulus arvensis); assay: Test E pre-/postemergence plant response; type: in vivo; conditions: scale 0 to 100
In short: (§1)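 Visual rating 0–100 vs untreated controls (0 = no effect, 100 = complete control) after 14–21 d greenhouse. Pre- and postemergence treatments; compound in non-phytotoxic solvent mix + surfactant. Post plants 2–18 cm, 1- to 4-leaf stage.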

[2] = test system: spanishneedles (Bidens bipinnata); assay: Test E pre-/postemergence plant response; type: in vivo; conditions: scale 0 to 100
In short: as §1

CCc1cc(-c2ccc(C(F)(F)F)cc2)nn1-c1c(OC(=O)OC(C)C)cnn(C)c1=O [Compound 12]
0: Plant response rating, Field Bindweed ([1]; 4 g ai/ha, Postemergence) | Plant response rating, Field Bindweed ([1]; 8 g ai/ha, Preemergence) | Plant response rating, Field Bindweed ([1]; 31 g ai/ha, Preemergence) | Plant response rating, Field Bindweed ([1]; Postemergence, 8 g ai/ha) | Plant response rating, Field Bindweed ([1]; Postemergence, 31 g ai/ha) | Plant response rating, Field Bindweed ([1]; Preemergence, 4 g ai/ha) | Plant response rating, Spanishneedles ([2]; 4 g ai/ha, Postemergence) | Plant response rating, Spanishneedles ([2]; 31 g ai/ha, Preemergence) | Plant response rating, Spanishneedles ([2]; Postemergence, 8 g ai/ha) | Plant response rating, Spanishneedles ([2]; Postemergence, 31 g ai/ha)
